Organism: Rattus norvegicus
Experiment: DrugMatrix - Regimen: Daily Repeat
Assay type: toxicity, organism-based, Sprague-Dawley
Design: regimen Daily Repeat, gender Male, age 6-8 weeks
Conditions: in vivo, po, route oral GAVAGE, […]; for ALKALINE PHOSPHATASE / ASPARTATE AMINOTRANSFERASE / BLOOD UREA NITROGEN / CARBON DIOXIDE / CHLORIDE / CHOLESTEROL / CREATINE PHOSPHOKINASE / CREATININE / GLUCOSE / LACTATE DEHYDROGENASE / LIPASE / PHOSPHORUS / POTASSIUM / SODIUM / TOTAL BILIRUBIN / TOTAL PROTEIN / URIC ACID / ALANINE AMINOTRANSFERASE / ALBUMIN: tissue Plasma; for BASOPHIL / EOSINOPHIL / ERYTHROCYTE COUNT / HEMATOCRIT / HEMOGLOBIN / LEUKOCYTE COUNT / LYMPHOCYTE / MEAN CORPUSCULAR HEMOGLOBIN / MEAN CORPUSCULAR HEMOGLOBIN CONCENTRATION / MEAN CORPUSCULAR VOLUME / MONOCYTE / NEUTROPHIL / PLATELET COUNT / ABSOLUTE BASOPHIL / ABSOLUTE EOSINOPHIL / ABSOLUTE LYMPHOCYTE / ABSOLUTE MONOCYTE / ABSOLUTE SEGMENTED NEUTROPHIL / NUCLEATED RED BLOOD CELLS: tissue Blood
[1] = 23 mg/kg, 120 h, dose level Low, time 5 day
[2] = 23 mg/kg, dose level High, time 28 day
[3] = 64 mg/kg, 72 h, dose level M1, time 3 day
[4] = 64 mg/kg, 120 h, dose level M1, time 5 day

## CC1=C(CC(=O)O)c2cc(F)ccc2/C1=C\c1ccc([S+](C)[O-])cc1 (stereo unspecified)
[1]
  ALKALINE PHOSPHATASE: 330 u/L
  ASPARTATE AMINOTRANSFERASE: 79.33 u/L
  BLOOD UREA NITROGEN: 14.33 mg/dL
  CARBON DIOXIDE: 29.33 mmol/L
  CHLORIDE: 100.67 MEQ/L
  CHOLESTEROL: 85 mg/dL
  CREATINE PHOSPHOKINASE: 210.67 u/L
  CREATININE: 0.2 mg/dL
  GLUCOSE: 156 mg/dL
  LACTATE DEHYDROGENASE: 80 u/L
  LIPASE: 11.67 u/L
  PHOSPHORUS: 10.87 mg/dL
  POTASSIUM: 5.36 MEQ/L
  SODIUM: 146.07 MEQ/L
  TOTAL BILIRUBIN: 0.17 mg/dL
  TOTAL PROTEIN: 6.1 G/DL
  URIC ACID: 0.77 mg/dL
[2]
  BASOPHIL: 0.35%
  EOSINOPHIL: 0.51%
  ERYTHROCYTE COUNT: 8.35 x10E6/uL
  HEMATOCRIT: 50.37%
  HEMOGLOBIN: 16.23 G/DL
  LEUKOCYTE COUNT: 13.2 x10E3/uL
  LYMPHOCYTE: 85.99%
  MEAN CORPUSCULAR HEMOGLOBIN: 19.47 pg
  MEAN CORPUSCULAR HEMOGLOBIN CONCENTRATION: 32.25 G/DL
  MEAN CORPUSCULAR VOLUME: 60.4 fL
  MONOCYTE: 1.36%
  NEUTROPHIL: 10.23%
  PLATELET COUNT: 1228.2 x10E3/uL
  ALANINE AMINOTRANSFERASE: 29 u/L
  ALBUMIN: 3.94 G/DL
  ALKALINE PHOSPHATASE: 227.1 u/L
  ASPARTATE AMINOTRANSFERASE: 60.9 u/L
  BLOOD UREA NITROGEN: 12.3 mg/dL
  CHLORIDE: 106.6 MEQ/L
  CHOLESTEROL: 55 mg/dL
  CREATINE PHOSPHOKINASE: 162.4 u/L
  CREATININE: 0.52 mg/dL
  GLUCOSE: 134.2 mg/dL
  PHOSPHORUS: 11.59 mg/dL
  POTASSIUM: 6.38 MEQ/L
  SODIUM: 153.3 MEQ/L
  TOTAL BILIRUBIN: 0.22 mg/dL
  TOTAL PROTEIN: 6.6 G/DL
[3]
  ABSOLUTE BASOPHIL: 0 CELLS/uL
  ABSOLUTE EOSINOPHIL: 0 CELLS/uL
  ABSOLUTE LYMPHOCYTE: 23014.33 CELLS/uL
  ABSOLUTE MONOCYTE: 921.67 CELLS/uL
  ABSOLUTE SEGMENTED NEUTROPHIL: 4264 CELLS/uL
  BASOPHIL: 0%
  EOSINOPHIL: 0%
  ERYTHROCYTE COUNT: 5.01 x10E6/uL
  HEMATOCRIT: 31.37%
  HEMOGLOBIN: 12.4 G/DL
  LEUKOCYTE COUNT: 28.2 x10E3/uL
  LYMPHOCYTE: 80.67%
  MEAN CORPUSCULAR HEMOGLOBIN: 24.8 pg
  MEAN CORPUSCULAR HEMOGLOBIN CONCENTRATION: 39.53 G/DL
  MEAN CORPUSCULAR VOLUME: 62.6 fL
  MONOCYTE: 3.33%
  NEUTROPHIL: 16%
  NUCLEATED RED BLOOD CELLS: 0 /100WBC
  PLATELET COUNT: 1053 x10E3/uL
  ALANINE AMINOTRANSFERASE: 55.67 u/L
  ALBUMIN: 3.33 G/DL
  ALKALINE PHOSPHATASE: 252 u/L
  ASPARTATE AMINOTRANSFERASE: 68 u/L
  BLOOD UREA NITROGEN: 9 mg/dL
  CARBON DIOXIDE: 22.33 mmol/L
  CHLORIDE: 105 MEQ/L
  CHOLESTEROL: 84.33 mg/dL
  CREATINE PHOSPHOKINASE: 173.33 u/L
  CREATININE: 0.16 mg/dL
  GLUCOSE: 162.67 mg/dL
  LACTATE DEHYDROGENASE: 160.33 u/L
  LIPASE: 10.33 u/L
  PHOSPHORUS: 9.7 mg/dL
  POTASSIUM: 6.43 MEQ/L
  SODIUM: 144.3 MEQ/L
  TOTAL BILIRUBIN: 0.17 mg/dL
  TOTAL PROTEIN: 5.17 G/DL
  URIC ACID: 1.37 mg/dL
[4]
  ABSOLUTE BASOPHIL: 0 CELLS/uL
  ABSOLUTE EOSINOPHIL: 0 CELLS/uL
  ABSOLUTE LYMPHOCYTE: 11762.67 CELLS/uL
  ABSOLUTE MONOCYTE: 305.67 CELLS/uL
  ABSOLUTE SEGMENTED NEUTROPHIL: 2898.33 CELLS/uL
  BASOPHIL: 0%
  EOSINOPHIL: 0%
  ERYTHROCYTE COUNT: 4.62 x10E6/uL
  HEMATOCRIT: 30.03%
  HEMOGLOBIN: 11.8 G/DL
  LEUKOCYTE COUNT: 14.97 x10E3/uL
  LYMPHOCYTE: 78.67%
  MEAN CORPUSCULAR HEMOGLOBIN: 25.5 pg
  MEAN CORPUSCULAR HEMOGLOBIN CONCENTRATION: 39.3 G/DL
  MEAN CORPUSCULAR VOLUME: 64.87 fL
  MONOCYTE: 2%
  NEUTROPHIL: 19.33%
  NUCLEATED RED BLOOD CELLS: 0 /100WBC
  PLATELET COUNT: 1198 x10E3/uL
  ALANINE AMINOTRANSFERASE: 48.67 u/L
  ALBUMIN: 3.57 G/DL
  ALKALINE PHOSPHATASE: 225.67 u/L
  ASPARTATE AMINOTRANSFERASE: 64.67 u/L
  BLOOD UREA NITROGEN: 11 mg/dL
  CARBON DIOXIDE: 31.67 mmol/L
  CHLORIDE: 101.33 MEQ/L
  CHOLESTEROL: 88.33 mg/dL
  CREATINE PHOSPHOKINASE: 237.33 u/L
  CREATININE: 0.18 mg/dL
  GLUCOSE: 174.67 mg/dL
  LACTATE DEHYDROGENASE: 137.33 u/L
  LIPASE: 10.67 u/L
  PHOSPHORUS: 10.57 mg/dL
  POTASSIUM: 5.08 MEQ/L
  SODIUM: 146.77 MEQ/L
  TOTAL BILIRUBIN: 0.13 mg/dL
  TOTAL PROTEIN: 5.57 G/DL
  URIC ACID: 0.5 mg/dL

— ChEMBL document CHEMBL3885881, “DrugMatrix”
